Laboratory results as given in patent publication US12077503B2, “Substituted cyclic amides and their use as herbicides” (FMC CORPORATION, priority 2015, dated 2024).

Tests used:
Format in all cases: in vivo
[1] = tested on: barnyardgrass (Echinochloa crus-galli); test: Test G Pre-Emergence Protocol; conditions: Echinochloa crus-galli, pre-emergence, 312 h, evaluated after 13 days; for pest or weed control at 15.625 g/ha: 15.625 g ai/ha, read-out: Barnyard grass damage rating (100=total damage to plant; 0=no damage to plant); for pest or weed control at 62.5 g/ha: 62.5 g ai/ha, 100=total damage to plant, 0=no damage to plant, read-out: plant damage rating, Barnyardgrass; for pest or weed control at 250 g/ha: 250 g ai/ha, read-out: Barnyardgrass damage rating (100=total damage to plant; 0=no damage to plant)
How it was run: (§1)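 Pre-emergence spray, 15.625/62.5/250 g/ha, vehicle acetone:water 50:50 + 0.5% Tween 20, applied 1 d after sowing. Glasshouse 24/16° C, 14 h light, 65% RH, watered twice daily. Visual damage rating at 13 d, 0–100 scale.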

[2] = tested on: corn (Zea mays); test: Test G Pre-Emergence Protocol; conditions: Zea mays, pre-emergence, 312 h, evaluated after 13 days; for plant injury at 15.625 g/ha: 15.625 g ai/ha; for plant injury at 15.625 g/ha / plant injury at 250 g/ha: read-out: Corn damage rating (100=total damage to plant; 0=no damage to plant); for plant injury at 62.5 g/ha: 62.5 g ai/ha, 100=total damage to plant, 0=no damage to plant, read-out: plant damage rating, Corn; for plant injury at 250 g/ha: 250 g ai/ha
How it was run: as §1

[3] = tested on: giant foxtail (Setaria faberi); test: Test G Pre-Emergence Protocol; conditions: Setaria faberi, pre-emergence, 312 h, evaluated after 13 days; for pest or weed control at 15.625 g/ha: 15.625 g ai/ha; for pest or weed control at 15.625 g/ha / pest or weed control at 250 g/ha: read-out: Foxtail, Giant damage rating (100=total damage to plant; 0=no damage to plant); for pest or weed control at 62.5 g/ha: 62.5 g ai/ha, 100=total damage to plant, 0=no damage to plant, read-out: plant damage rating, Foxtail, Giant; for pest or weed control at 250 g/ha: 250 g ai/ha
How it was run: as §1

[4] = tested on: ivy-leaved morning glory (Ipomoea hederacea); test: Test G Pre-Emergence Protocol; conditions: Ipomoea, pre-emergence, 312 h, evaluated after 13 days; for pest or weed control at 15.625 g/ha: 15.625 g ai/ha, read-out: Morning-glory, Ivy-leaved damage rating (100=total damage to plant; 0=no damage to plant); for pest or weed control at 62.5 g/ha: 62.5 g ai/ha, 100=total damage to plant, 0=no damage to plant, read-out: plant damage rating, Morningglory, Ivy-leaved; for pest or weed control at 250 g/ha: 250 g ai/ha, read-out: Morningglory, Ivy-leaved damage rating (100=total damage to plant; 0=no damage to plant)
How it was run: as §1

[5] = tested on: redroot pigweed (Amaranthus retroflexus); test: Test G Pre-Emergence Protocol; conditions: Amaranthus retroflexus, pre-emergence, 312 h, evaluated after 13 days; for pest or weed control at 15.625 g/ha: 15.625 g ai/ha; for pest or weed control at 15.625 g/ha / pest or weed control at 250 g/ha: read-out: Pigweed, Redroot damage rating (100=total damage to plant; 0=no damage to plant); for pest or weed control at 62.5 g/ha: 62.5 g ai/ha, 100=total damage to plant, 0=no damage to plant, read-out: plant damage rating, Pigweed, Redroot; for pest or weed control at 250 g/ha: 250 g ai/ha
How it was run: as §1

[6] = tested on: velvetleaf (Abutilon theophrasti); test: Test G Pre-Emergence Protocol; conditions: Abutilon theophrasti, pre-emergence, 312 h, evaluated after 13 days; for pest or weed control at 15.625 g/ha: 15.625 g ai/ha; for pest or weed control at 15.625 g/ha / pest or weed control at 250 g/ha: read-out: Velvetleaf damage rating (100=total damage to plant; 0=no damage to plant); for pest or weed control at 62.5 g/ha: 62.5 g ai/ha, 100=total damage to plant, 0=no damage to plant, read-out: plant damage rating, Velvetleaf; for pest or weed control at 250 g/ha: 250 g ai/ha
How it was run: as §1

[7] = tested on: barnyardgrass (Echinochloa crus-galli); test: Test G Post-Emergence Protocol; conditions: Echinochloa crus-galli, post-emergence, 312 h; for pest or weed control at 15.625 g/ha: 15.625 g ai/ha, evaluated after 13 days (100=total damage to plant; 0=no damage to plant), read-out: Barnyardgrass damage rating; for pest or weed control at 62.5 g/ha: 62.5 g ai/ha, read-out: Barnyardgrass damage rating (100=total damage to plant; 0=no damage to plant); for pest or weed control at 62.5 g/ha / pest or weed control at 250 g/ha: evaluated after 13 days; for pest or weed control at 250 g/ha: 250 g ai/ha, read-out: damage to plant, Barnyardgrass (100=total damage to plant; 0=no damage to plant)
How it was run: (§2)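 Values are percent visual injury at 13 days after treatment (0 none, 100 total). Treatment was a post-emergence spray at 15.625, 62.5 or 250 g/ha on 8-day-old pot plants kept at 24/16 °C.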

[8] = tested on: corn (Zea mays); test: Test G Post-Emergence Protocol; conditions: Zea mays, post-emergence, 312 h; for plant injury at 15.625 g/ha: 15.625 g ai/ha, evaluated after 13 days (100=total damage to plant; 0=no damage to plant), read-out: Corn damage rating; for plant injury at 62.5 g/ha: 62.5 g ai/ha, read-out: Corn damage rating (100=total damage to plant; 0=no damage to plant); for plant injury at 62.5 g/ha / plant injury at 250 g/ha: evaluated after 13 days; for plant injury at 250 g/ha: 250 g ai/ha, read-out: damage to plant, Corn (100=total damage to plant; 0=no damage to plant)
How it was run: as §2

[9] = tested on: giant foxtail (Setaria faberi); test: Test G Post-Emergence Protocol; conditions: Setaria faberi, post-emergence, 312 h; for pest or weed control at 15.625 g/ha: 15.625 g ai/ha, evaluated after 13 days (100=total damage to plant; 0=no damage to plant), read-out: Foxtail, Giant damage rating; for pest or weed control at 62.5 g/ha: 62.5 g ai/ha, read-out: Foxtail, Giant damage rating (100=total damage to plant; 0=no damage to plant); for pest or weed control at 62.5 g/ha / pest or weed control at 250 g/ha: evaluated after 13 days; for pest or weed control at 250 g/ha: 250 g ai/ha, read-out: damage to plant, Foxtail, Giant (100=total damage to plant; 0=no damage to plant)
How it was run: as §2

[10] = tested on: ivy-leaved morning glory (Ipomoea hederacea); test: Test G Post-Emergence Protocol; conditions: Ipomoea, post-emergence, 312 h; for pest or weed control at 15.625 g/ha: 15.625 g ai/ha, evaluated after 13 days (100=total damage to plant; 0=no damage to plant), read-out: Morningglory, Ivy-leaved damage rating; for pest or weed control at 62.5 g/ha: 62.5 g ai/ha, read-out: Morningglory, Ivy-leaved damage rating (100=total damage to plant; 0=no damage to plant); for pest or weed control at 62.5 g/ha / pest or weed control at 250 g/ha: evaluated after 13 days; for pest or weed control at 250 g/ha: 250 g ai/ha, read-out: damage to plant, Morningglory, Ivy-leaved (100=total damage to plant; 0=no damage to plant)
How it was run: as §2

[11] = tested on: redroot pigweed (Amaranthus retroflexus); test: Test G Post-Emergence Protocol; conditions: Amaranthus retroflexus, post-emergence, 312 h; for pest or weed control at 15.625 g/ha: 15.625 g ai/ha, evaluated after 13 days (100=total damage to plant; 0=no damage to plant), read-out: Pigweed, Redroot damage rating; for pest or weed control at 62.5 g/ha: 62.5 g ai/ha, read-out: Pigweed, Redroot damage rating (100=total damage to plant; 0=no damage to plant); for pest or weed control at 62.5 g/ha / pest or weed control at 250 g/ha: evaluated after 13 days; for pest or weed control at 250 g/ha: 250 g ai/ha, read-out: damage to plant, Pigweed, Redroot (100=total damage to plant; 0=no damage to plant)
How it was run: as §2

[12] = tested on: velvetleaf (Abutilon theophrasti); test: Test G Post-Emergence Protocol; conditions: Abutilon theophrasti, post-emergence, 312 h; for pest or weed control at 15.625 g/ha: 15.625 g ai/ha, evaluated after 13 days (100=total damage to plant; 0=no damage to plant), read-out: Velvetleaf damage rating; for pest or weed control at 62.5 g/ha: 62.5 g ai/ha, read-out: Velvetleaf damage rating (100=total damage to plant; 0=no damage to plant); for pest or weed control at 62.5 g/ha / pest or weed control at 250 g/ha: evaluated after 13 days; for pest or weed control at 250 g/ha: 250 g ai/ha, read-out: damage to plant, Velvetleaf (100=total damage to plant; 0=no damage to plant)
How it was run: as §2

Cc1nnc(NC(=O)[C@@H]2C(=O)N(C)C[C@H]2c2ccc(C(F)(F)F)cc2)nc1C (racemic) [Compound 1549]
0%: pest or weed control at 15.625 g/ha [1] | pest or weed control at 62.5 g/ha [1] | pest or weed control at 250 g/ha [1] | plant injury at 15.625 g/ha [2] | plant injury at 62.5 g/ha [2] | plant injury at 250 g/ha [2] | pest or weed control at 15.625 g/ha [3] | pest or weed control at 62.5 g/ha [3] | pest or weed control at 250 g/ha [3] | pest or weed control at 15.625 g/ha [4] | pest or weed control at 62.5 g/ha [4] | pest or weed control at 250 g/ha [4] | pest or weed control at 15.625 g/ha [5] | pest or weed control at 62.5 g/ha [5] | pest or weed control at 250 g/ha [5] | pest or weed control at 15.625 g/ha [6] | pest or weed control at 62.5 g/ha [6] | pest or weed control at 250 g/ha [6] | pest or weed control at 15.625 g/ha [7] | pest or weed control at 62.5 g/ha [7] | pest or weed control at 250 g/ha [7] | plant injury at 15.625 g/ha [8] | plant injury at 62.5 g/ha [8] | plant injury at 250 g/ha [8] | pest or weed control at 15.625 g/ha [9] | pest or weed control at 62.5 g/ha [9] | pest or weed control at 250 g/ha [9] | pest or weed control at 15.625 g/ha [10] | pest or weed control at 62.5 g/ha [10] | pest or weed control at 250 g/ha [10] | pest or weed control at 15.625 g/ha [11] | pest or weed control at 62.5 g/ha [11] | pest or weed control at 250 g/ha [11] | pest or weed control at 15.625 g/ha [12] | pest or weed control at 62.5 g/ha [12] | pest or weed control at 250 g/ha [12]

CN1C[C@@H](c2ccc(NS(C)(=O)=O)cc2)[C@H](C(=O)Nc2ccccc2F)C1=O (racemic) [Compound 1416]
0%: pest or weed control at 15.625 g/ha [1] | pest or weed control at 62.5 g/ha [1] | pest or weed control at 250 g/ha [1] | plant injury at 15.625 g/ha [2] | plant injury at 62.5 g/ha [2] | plant injury at 250 g/ha [2] | pest or weed control at 15.625 g/ha [3] | pest or weed control at 62.5 g/ha [3] | pest or weed control at 250 g/ha [3] | pest or weed control at 15.625 g/ha [4] | pest or weed control at 62.5 g/ha [4] | pest or weed control at 250 g/ha [4] | pest or weed control at 15.625 g/ha [5] | pest or weed control at 62.5 g/ha [5] | pest or weed control at 250 g/ha [5] | pest or weed control at 15.625 g/ha [6] | pest or weed control at 62.5 g/ha [6] | pest or weed control at 250 g/ha [6] | pest or weed control at 15.625 g/ha [7] | pest or weed control at 62.5 g/ha [7] | pest or weed control at 250 g/ha [7] | plant injury at 15.625 g/ha [8] | plant injury at 62.5 g/ha [8] | plant injury at 250 g/ha [8] | pest or weed control at 15.625 g/ha [9] | pest or weed control at 62.5 g/ha [9] | pest or weed control at 250 g/ha [9] | pest or weed control at 15.625 g/ha [10] | pest or weed control at 62.5 g/ha [10] | pest or weed control at 250 g/ha [10] | pest or weed control at 15.625 g/ha [11] | pest or weed control at 62.5 g/ha [11] | pest or weed control at 250 g/ha [11] | pest or weed control at 15.625 g/ha [12] | pest or weed control at 62.5 g/ha [12] | pest or weed control at 250 g/ha [12]
